Experimental data reported in patent US8629293B2, “Process for the preparation of FE(III) chelates of N,N′-DI(2-hydroxybenzyl)-ethylenediamine-N,N′-diacetic acid and its derivatives” (Przedsiebiorstwo Produkcyjno-Consultingowe Adob SP. Z O.O. …, priority 2009, dated 2014).

Legend:
Format in all cases: in vivo
[1] = test system: 10-year old nectarine trees, cultivar "Zephyr" grafted on the GF677 root stock; assay: Field test, testing field No. 1: SPAD index
Method: (§1) The comparison included two chelate agents for supplementing iron deficiencies: HBED/Fe^3+ as well as the commercially available, highly purified EDDHA/Fe^3+. The studies were carried out on two fields with the soil having an alkaline pH as well as a high concentration of calcium ions. The chelates were applied directly to the soil by means of a dripper immersed in the soil.
10-year old nectarine trees, cultivar “Zephyr” grafted on the GF677 root stock
The chelates were applied at the following concentrations: • EDDHA/Fe^3+: high concentration (0.9 g of the chelated Fe/tree) • HBED/Fe^3+: low concentration (0.45 g of the chelated Fe/tree) • HBED/Fe^3+: high concentration (0.9 g of the chelated Fe/tree) • control trial: without Fe
The chelate solutions of various concentrations were applied in three portions (50%, 30%, and finally 20% of the whole dose, respectively) directly to the ground below the dripper.
The SPAD index was measured approximately every two weeks: on day 14, 29, 44, 61, 88 and 99 after application of the chelates.

[2] = test system: 7-year old trees of flat peach (Prunus persica var. platycarpa) grafted on the GF677 root stock with visible symptoms of chlorosis; assay: Field test, testing field No. 2: SPAD index of leaves; conditions: for ΔSPAD index of leaves: 0.9 g of the chelated Fe/tree
Method: as §1
7-year old trees of flat peach (Prunus persica var. platycarpa) grafted on the GF677 root stock with visible symptoms of chlorosis
The chelates were applied at the following concentrations: • EDDHA/Fe^3+: high concentration (0.9 g of the chelated Fe/tree) • HBED/Fe^3+: high concentration (0.9 g of the chelated Fe/tree) • control trial: without Fe
The chelate solutions were dosed directly to the ground below the dripper. In this case, the whole dose of the chelates were applied in one portion. The symptoms of chlorosis were visible at the beginning of the experiment.
The samples for determination of the SPAD index of leaves were taken approximately every two weeks (on day 0, 20, 40 and 63 after application of the chelates).

[3] = test system: soybean (Glycine max L.) var. Stine 0480; assay: Fertilising of soya in plant growth climatic chamber: SPAD index (leaves greenness); conditions: for The SPAD index, 2nd level of foliage / The SPAD index, 3rd level of foliage: end of experiment
Method: (§2) The experiment was performed using the seeds of soybean (Glycine max L.) var. Stine 0480. A standard seed germination procedure was followed. Before starting the experiment, the seeds were thoroughly washed with water (30 minutes). The clean seeds were placed between two sheets of a cellulose paper soaked with water. The seeds germinated over two days in a climatic chamber at a temperature of 30° C. and a humidity of 60%, without access of light. After that time, the seedlings at a similar stage of development were placed on perforated trays floating over containers containing 10 L of the diluted nutrient solution for four days, followed by next three days using a solution containing micronutrients but without iron. Composition of the nutrient solution was: 1 mM Ca(NO3)2, 0.90 mM KNO3, 0.30 mM MgSO4, 0.10 mM KH2PO4, 2.5 μM MnSO4, 1.0 μM CuSO4, 10 μM ZnSO4, 1.0 μM NiCl2, 1.0 μM CoSO4, 115.5 μM Na2EDTA, 231 μM KOH, 35 μM NaCl, 10 μM H3BO3, 0.05 μM Na2MoO4 and 0.1 mM of N-(2-hydroxyethyl)piperazine-N′-(2-ethanesulfonic acid) sodium salt (HEPES). The pH value was adjusted to 7.5 using 1M KOH. 1-litre pots were filled with soil and sand in a volume ratio of 2:1. The test plants were transplanted into the thus-prepared pots, 3 plants per each pot. The experiment was carried out with adhering to the daily cycle of plant growth: 16 h of day time (30° C., 50% humidity) and 8 h of night time (25° C., 70% humidity).
(§3) Seven days after transplanting the plants into the pots, the symptoms of chlorosis were observed. The further part of the experiment was aimed at comparison of the effectiveness of performance of FeHBED with that of the commercially available FeEDDHA. For this purpose, the solutions of FeHBED and FeEDDHA were prepared, in which the iron isotope ^57Fe was used. The concentrations of ^57Fe in the doses were 0, 1.7, 3.4, 8.4, 16.8, 25.1 and 41.9 μmol of ^57Fe/kg of soil. Each dose was applied in duplicate. Additionally, a blank test (without iron) was performed for three pots.
The SPAD index (a measure of leaves greenness) was determined every two days during the whole experiment.

[4] = test system: soybean (Glycine max L.) var. Stine 0480; assay: Fertilising of soya in plant growth climatic chamber: plant dry matter
Method: as §2, §3
Table 1 summarises the results of dry matter of above-ground sprouts (leaves and stems) for the plants gathered after every application of iron solutions of various concentration for two samplings.

[5] = 0.9 g of the chelated Fe/tree, day 14 after application
[6] = 0.9 g of the chelated Fe/tree, day 29 after application
[7] = 0.9 g of the chelated Fe/tree, day 44 after application
[8] = 0.9 g of the chelated Fe/tree, day 61 after application
[9] = 0.9 g of the chelated Fe/tree, day 88 after application
[10] = 0.9 g of the chelated Fe/tree, day 99 after application
[11] = 0.45 g of the chelated Fe/tree, day 14 after application
[12] = 0.45 g of the chelated Fe/tree, day 29 after application
[13] = 0.45 g of the chelated Fe/tree, day 44 after application
[14] = 0.45 g of the chelated Fe/tree, day 61 after application
[15] = 0.45 g of the chelated Fe/tree, day 88 after application
[16] = 0.45 g of the chelated Fe/tree, day 99 after application

## O=C([O-])C(NCCNC(C(=O)[O-])c1ccccc1[O-])c1ccccc1[O-].[Fe+3] (centres unmarked) [EDDHA/Fe^3+, reference compound]
[1]; [5]
  The SPAD index of the fructifying branches: 36.00
  The SPAD index of the non-fructifying branches: 35.69
[1]; [6]
  The SPAD index of the fructifying branches: 37.00
  The SPAD index of the non-fructifying branches: 37.77
[1]; [7]
  The SPAD index of the fructifying branches: 37.82
  The SPAD index of the non-fructifying branches: 36.23
[1]; [8]
  The SPAD index of the fructifying branches: 37.82
  The SPAD index of the non-fructifying branches: 35.15
[1]; [9]
  The SPAD index of the fructifying branches: 39.09
  The SPAD index of the non-fructifying branches: 37.38
[1]; [10]
  The SPAD index of the fructifying branches: 38.91
  The SPAD index of the non-fructifying branches: 36.92
[2]; day 0 after application
  ΔSPAD index of leaves: 0
[2]; day 20 after application
  ΔSPAD index of leaves: 13.00
[2]; day 40 after application
  ΔSPAD index of leaves: 17.50
[2]; day 63 after application
  ΔSPAD index of leaves: 17.25

## O=C([O-])CN(CCN(CC(=O)[O-])Cc1ccccc1[O-])Cc1ccccc1[O-].[Fe+3].[Na+] [HBED/Fe^3+]
[1]; [11]
  The SPAD index of the fructifying branches: 36.46
  The SPAD index of the non-fructifying branches: 34.39
[1]; [12]
  The SPAD index of the fructifying branches: 37.82
  The SPAD index of the non-fructifying branches: 36.46
[1]; [13]
  The SPAD index of the fructifying branches: 37.09
  The SPAD index of the non-fructifying branches: 34.46
[1]; [14]
  The SPAD index of the fructifying branches: 36.54
  The SPAD index of the non-fructifying branches: 34.69
[1]; [15]
  The SPAD index of the fructifying branches: 38.64
  The SPAD index of the non-fructifying branches: 37.46
[1]; [16]
  The SPAD index of the fructifying branches: 37.36
  The SPAD index of the non-fructifying branches: 36.54
[1]; [5]
  The SPAD index of the fructifying branches: 35.45
  The SPAD index of the non-fructifying branches: 35.69
[1]; [6]
  The SPAD index of the fructifying branches: 37.91
  The SPAD index of the non-fructifying branches: 35.77
[1]; [7]
  The SPAD index of the fructifying branches: 37.27
  The SPAD index of the non-fructifying branches: 36.54
[1]; [8]
  The SPAD index of the fructifying branches: 37.64
  The SPAD index of the non-fructifying branches: 33.69
[1]; [9]
  The SPAD index of the fructifying branches: 39.73
  The SPAD index of the non-fructifying branches: 39.00
[1]; [10]
  The SPAD index of the fructifying branches: 37.27
  The SPAD index of the non-fructifying branches: 37.46
[1]; fructifying and non-fructifying branches, Tables 3 and 4
  SPAD index values compared with EDDHA/Fe3+: comparable
[1]; testing field No. 1
  Effect on symptoms of chlorosis: effectively reduces the symptoms of chlorosis
[2]; day 0 after application
  ΔSPAD index of leaves: 0
[2]; day 20 after application
  ΔSPAD index of leaves: 11.50
[2]; day 40 after application
  ΔSPAD index of leaves: 16.75
[2]; day 63 after application
  ΔSPAD index of leaves: 16.23
[2]; Table 5
  ΔSPAD index compared with EDDHA/Fe3+: does not show any significant differences
[2]; soils of alkaline pH and high concentration of calcium ions
  Use against iron deficiencies: may be successfully used against iron deficiencies

## O=C(O)CN(CCN(CC(=O)O)Cc1ccccc1O)Cc1ccccc1O [HBED]
[3]; both levels of foliage
  SPAD index compared with o,oEDDHA/57Fe3+: No significant differences in the values of the SPAD index
[3]; 1.7 μmol of 57Fe/kg of soil
  The SPAD index, 2nd level of foliage: 29.58
  The SPAD index, 3rd level of foliage: 34.09
[3]; 3.4 μmol of 57Fe/kg of soil
  The SPAD index, 2nd level of foliage: 28.75
  The SPAD index, 3rd level of foliage: 35.91
[3]; 8.4 μmol of 57Fe/kg of soil
  The SPAD index, 2nd level of foliage: 42.50
  The SPAD index, 3rd level of foliage: 43.18
[3]; 16.8 μmol of 57Fe/kg of soil
  The SPAD index, 2nd level of foliage: 27.92
  The SPAD index, 3rd level of foliage: 37.73
[3]; 25.1 μmol of 57Fe/kg of soil
  The SPAD index, 2nd level of foliage: 27.92
  The SPAD index, 3rd level of foliage: 37.73
[3]; 41.9 μmol of 57Fe/kg of soil
  The SPAD index, 2nd level of foliage: 29.17
  The SPAD index, 3rd level of foliage: 43.64
[4]; conclusion from Table 1, all doses
  Sprout dry weights compared with o,oEDDHA/57Fe3+: no evident difference in the sprout dry weights
[4]; dose 1.7 μmol 57Fe/kg of soil
  Root dry weight: 0.33 g/3 plants
  Sprout dry weight, 1 sampling: 0.73 g/plant
  Sprout dry weight, 2 sampling: 2.20 g/plant
[4]; dose 3.4 μmol 57Fe/kg of soil
  Root dry weight: 0.53 g/3 plants
  Sprout dry weight, 1 sampling: 0.79 g/plant
  Sprout dry weight, 2 sampling: 2.83 g/plant
[4]; dose 8.4 μmol 57Fe/kg of soil
  Root dry weight: 0.56 g/3 plants
  Sprout dry weight, 1 sampling: 0.91 g/plant
  Sprout dry weight, 2 sampling: 2.62 g/plant
[4]; dose 16.8 μmol 57Fe/kg of soil
  Root dry weight: 0.51 g/3 plants
  Sprout dry weight, 1 sampling: 0.72 g/plant
  Sprout dry weight, 2 sampling: 3.19 g/plant
[4]; dose 25.1 μmol 57Fe/kg of soil
  Root dry weight: 0.43 g/3 plants
  Sprout dry weight, 1 sampling: 0.92 g/plant
  Sprout dry weight, 2 sampling: 2.66 g/plant
[4]; dose 41.9 μmol 57Fe/kg of soil
  Root dry weight: 0.49 g/3 plants
  Sprout dry weight, 1 sampling: 0.79 g/plant
  Sprout dry weight, 2 sampling: 2.63 g/plant

## O=C([O-])C(NCCNC(C(=O)[O-])c1ccccc1[O-])c1ccccc1[O-].[Fe+3] (centres unmarked) [o,oEDDHA, reference compound]
[3]; 1.7 μmol of 57Fe/kg of soil
  The SPAD index, 2nd level of foliage: 37.92
  The SPAD index, 3rd level of foliage: 43.18
[3]; 3.4 μmol of 57Fe/kg of soil
  The SPAD index, 2nd level of foliage: 34.58
  The SPAD index, 3rd level of foliage: 40.00
[3]; 8.4 μmol of 57Fe/kg of soil
  The SPAD index, 2nd level of foliage: 31.67
  The SPAD index, 3rd level of foliage: 36.82
[3]; 16.8 μmol of 57Fe/kg of soil
  The SPAD index, 2nd level of foliage: 32.92
  The SPAD index, 3rd level of foliage: 40.46
[3]; 25.1 μmol of 57Fe/kg of soil
  The SPAD index, 2nd level of foliage: 37.08
  The SPAD index, 3rd level of foliage: 37.73
[3]; 41.9 μmol of 57Fe/kg of soil
  The SPAD index, 2nd level of foliage: 38.75
  The SPAD index, 3rd level of foliage: 44.55
[4]; dose 1.7 μmol 57Fe/kg of soil
  Root dry weight: 0.44 g/3 plants
  Sprout dry weight, 1 sampling: 0.88 g/plant
  Sprout dry weight, 2 sampling: 2.08 g/plant
[4]; dose 3.4 μmol 57Fe/kg of soil
  Root dry weight: 0.51 g/3 plants
  Sprout dry weight, 1 sampling: 0.79 g/plant
  Sprout dry weight, 2 sampling: 2.92 g/plant
[4]; dose 8.4 μmol 57Fe/kg of soil
  Root dry weight: 0.49 g/3 plants
  Sprout dry weight, 1 sampling: 0.87 g/plant
  Sprout dry weight, 2 sampling: 2.03 g/plant
[4]; dose 16.8 μmol 57Fe/kg of soil
  Root dry weight: 0.53 g/3 plants
  Sprout dry weight, 1 sampling: 0.84 g/plant
  Sprout dry weight, 2 sampling: 2.56 g/plant
[4]; dose 25.1 μmol 57Fe/kg of soil
  Root dry weight: 0.59 g/3 plants
  Sprout dry weight, 1 sampling: 0.81 g/plant
  Sprout dry weight, 2 sampling: 2.73 g/plant
[4]; dose 41.9 μmol 57Fe/kg of soil
  Root dry weight: 0.49 g/3 plants
  Sprout dry weight, 1 sampling: 0.86 g/plant
  Sprout dry weight, 2 sampling: 3.20 g/plant
